Columns and labels:
[1] = tested on: pressurized cerebral arteries from wt mice; assay: Artery diameter measurement, pressurized cerebral arteries from wt C57BL/6 mice; parameters: species or system mouse
Method: Artery Diameter Measurement. Middle cerebral arteries were isolated from adult male Sprague-Dawley rats (=250 g) or 8- to 12-week-old β1-knockout and C57BL/6 control mice. Rats and mice were decapitated using a guillotine and sharp scissors, respectively. These procedures were approved by the Institutional Animal Care and Use Committee from The University of Tennessee Health Science Center, an AMLAC-accredited institution. Pressurization of arteries was performed as described (Liu et al., 2004). Endothelium was removed by passing an air bubble into the vessel lumen for 90 sec. Diameter changes were monitored through an inverted microscope (Nikon Eclipse TS100, Nikon Corp., Tokyo, Japan), recorded on camera (Sanyo VCB-3512T, Sanyo Electric Corp., Japan), and transferred to a computer. Diameter data were acquired and analyzed using IonWizard 4.4 software (IonOptics Corp., Milton, Mass., United States of America). […]
Data Analysis. […] Arterial diameter and electrophysiological data were analyzed with IonWizard 4.4 (IonOptics Corp., Milton, Mass., United States of America) and pCLAMP 8.0 (Molecular Devices, Union City, Calif., United States of America). […]
To determine the impact of LC targeting of BK β1-subunits on organ function, LC action on the arterial diameter of pressurized cerebral arteries was evaluated from β1-knockout vs. wt C57BU6 mice (controls). […]

[2] = tested on: pressurized resistance cerebral arteries; assay: Artery diameter measurement, pressurized rat middle cerebral arteries; conditions: for Integral (area under the curve) from the time of drug application until complete washout of effect: change in diameter as a function of time; for Effect remaining after ~6 min of washout (percentual increase from diameter before agent application): when vehicle effect had totally vanished
Method: Artery Diameter Measurement. Middle cerebral arteries were isolated from adult male Sprague-Dawley rats (=250 g) or 8- to 12-week-old β1-knockout and C57BL/6 control mice. Rats and mice were decapitated using a guillotine and sharp scissors, respectively. These procedures were approved by the Institutional Animal Care and Use Committee from The University of Tennessee Health Science Center, an AMLAC-accredited institution. Pressurization of arteries was performed as described (Liu et al., 2004). Endothelium was removed by passing an air bubble into the vessel lumen for 90 sec. Diameter changes were monitored through an inverted microscope (Nikon Eclipse TS100, Nikon Corp., Tokyo, Japan), recorded on camera (Sanyo VCB-3512T, Sanyo Electric Corp., Japan), and transferred to a computer. Diameter data were acquired and analyzed using IonWizard 4.4 software (IonOptics Corp., Milton, Mass., United States of America).
Pressurized arteries were extraluminally perfused with physiological saline solution (PSS) (Liu et al., 2004) at a constant rate of 3.75 ml/min using a peristaltic pump Dynamax RP-1 (Rainin Instrument, Inc., Oakland, Calif., United States of America). At this rate, complete washout of the iberiotoxin (Ibtx) effect required >45 min. To keep basal tone under steady behavior, we shortened this period by increasing flow rate ˜3 times during washout of Ibtx, which sometimes evoked a flow-induced dilation (FIG. 1A). Equal volumes (25 ml) of vehicle- vs. LC-containing solutions were applied at equal, constant rate (see above) to the pressurized arterial segment in the chamber via a gravity system. Drugs were dissolved to make stock solutions (see Chemicals) and diluted in PSS to final concentration.
Chemicals. All chemicals were purchased from Sigma (St. Louis, Mo., United States of America), with the exception of 5β-cholanic acid 3α-ol (LC) (Steraloids, Inc., Newport, R.I., United States of America) and Ibtx (Alomone Labs Ltd., Jerusalem, Israel). On the day of the experiment, an LC stock solution (333 mM) in dimethyl sulfoxide (DMSO) was freshly prepared by sonication for 5 min. For arterial tone experiments, the LC stock was diluted 1/10 in DMSO and further diluted in PSS to render final LC concentration. Solution containing vehicle (0.1% DMSO; V/V) was used as control perfusion. For electrophysiological recordings, the LC stock solution was diluted 1/10 in 95% ethanol and further diluted with bath solution to render final LC concentration (3-1,000 μM). The DMSO/ethanol vehicle (≦0.1/≦0.86% final concentrations) in bath solution was used as control.
Data Analysis. Artery diameter response to each compound is shown as a percentage of the diameter obtained before compound application. Arterial diameter and electrophysiological data were analyzed with IonWizard 4.4 (IonOptics Corp., Milton, Mass., United States of America) and pCLAMP 8.0 (Molecular Devices, Union City, Calif., United States of America). Further analysis, plotting, and fitting were conducted using Origin 7.0 (Originlab Corp., Northampton, Mass., United States of America) and InStat 3.0 (GraphPad Software Inc., San Diego, Calif., United States of America).
After myogenic tone development at 60 mm Hg, intact arteries reached a diameter of 154.4±5.2 μm (n=17). Maximal contraction and dilation were checked by perfusing the vessel with 60 mM KCl at the beginning, and Ca^2+-free solution at the end of each experiment (FIGS. 1A & 1B). In all cases (n=17), application of 45 μM LC, that is, concentrations well below LC's critical micellar concentration (CMC) (≧1 mM under our recording conditions) (Roda et al., 1995) caused a significant increase in peak arterial diameter: +6% on top of a transient increase in diameter caused by vehicle-containing solution (FIGS. 1A-1C). […]

[3] = 45 μM, listed as Lithocholic acid

| Compound | Increase in diameter from initial diameter ([1]; 45 μM, wt mouse cerebral arteries) | Change in diameter caused by LC in the presence of Ibtx ([2]; 45 μM LC + 55 nM Ibtx) | Change in peak diameter caused by LC in the presence of 4-AP (over pre-LC values) ([2]; 45 μM LC + 0.8 mM 4-AP) | Integral (area under the curve) from the time of drug application until complete washout of effect ([2]; 45 μM) | Integral (area under the curve) from the time of drug application until complete washout of effect [2, 3] | Expected increase in cerebral blood flow (CBF) ([2]; 45 μM, from diameter change by a factor of ~3 (Gourley and Heistad, 1984)) | Increase in peak arterial diameter on top of the transient increase caused by vehicle ([2]; 45 μM, intact arteries) | Rise time ([2]; 45 μM, intact arteries with myogenic tone at 60 mm Hg) | Effect remaining after ~6 min of washout (percentual increase from diameter before agent application) ([2]; 45 μM) | Effect remaining after ~6 min of washout (percentual increase from diameter before agent application) [2, 3] | Emax at 45 µM ([2]; Rattus norvegicus, 45 μM, intact arteries, read-out: Maximal effect (% from diameter before compound application)) | Decrease from initial diameter (vasoconstriction) ([1]; 55 nM, within 15 min of application, control mice) | Decrease in diameter of intact arteries ([2]; 55 nM, bath application) |
| --- | --- | --- | --- | --- | --- | --- | --- | --- | --- | --- | --- | --- | --- |
| C[C@H](CCC(=O)O)[C@H]1CC[C@H]2[C@@H]3CC[C@@H]4C[C@H](O)CC[C@]4(C)[C@H]3CC[C@]12C [LC, 5β-cholanic acid 3α-ol] | +4.4±0.9% | −3.4% | +6% | 18,369±3,964 | 18,369 ± 3,964 | ~30% | +6% | 231.9 ± 21.9 s | 109.9±1.7% | 109.9 ± 1.7 % | 117 ± 1.9% | – | – |
| iberiotoxin (QFTDVDCSVSKECWSVCKDLFGVDRGKCMGKKCRCYQ; UniProt P24663 1-37, looked up) [Ibtx, reference compound] | – | – | – | – | – | – | – | – | – | – | – | −8.7±4.2% | −11.8±3.4% |
